Results as given in patent publication US5413915A (priority 1991, dated 1995).
Marks after values point to notes of the source that are not given here.

Legend:
rat liver microsomes = format: biochemical; parameters: unit not given here
[1] = in vivo; cited from earlier work
Salmonella typhimurium = details: cited from earlier work
[2] = in vivo; cited from earlier work; remark: listed apart in the source

Compound	Detector Response, threshold dose (rat liver microsomes)	Teratogen Activity [1]	Mutagenicity (Salmonella typhimurium)	Tumorigen Activity [2]	Tumorigen Activity, assignment based on NCI/NTP carcinogenesis bioassay results [2]
ClCCCl [1,2-Dichloroethane]	20	-	+	+	
C1COCCO1 [1,4-Dioxane]	10	-	-		+
Oc1ccccc1Cl [2-Chlorophenol]	< 1	-	-	+	
Oc1ccc2ccccc2c1 [2-Naphthol]	20	-		-	
NC(N)=S [2-Thiourea]	7	+	+	+	
Oc1cccc(Cl)c1 [3-Chlorophenol]	< 1	-	-	+	
Oc1ccc(Cl)cc1 [4-Chlorophenol]	< 1	-	+	+	
Oc1cccc2cccnc12 [8-Hydroxyquinoline]	0.3	-	+	+	
CC(C)=O [Acetone]	> 50	-	-	-	
C=CC(N)=O [Acrylamide]	0.2	-		+	
C=CC#N [Acrylonitrile]	20	+	+	+	
O=C1c2ccccc2C(=O)c2ccccc21 [Anthraquinone]	1-20	-	-	-	
CCNc1nc(Cl)nc(NC(C)C)n1 [Atrazine (ind.), Atrazine]	0.05	-	-	+^e	
NC(=O)CI [Iodoacetamide]	0.1	-		+	
CC(C)C(C(=O)OC(C#N)c1cccc(Oc2ccccc2)c1)c1ccc(Cl)cc1 (centres unmarked) [Sumicidin (ind.), Sumicidin]	0.5	-?		-?	
Lecithin [Lecithin, fresh]		-	-	-	
Lecithin [Lecithin, oxidized]		-	+	+	
Magnesium(II)		-	-	-	
Triton X-100		-	-	-	
